Broadly, the IC50 is the concentration needed to halve the response being measured. The low end stands for inhibition by little substance, the high end for a need for much substance.

A value given as a limit tells only on which side of the number the result lay.

Consider seven molecules from ChEMBL document CHEMBL1147448, “New substituted triaza-benzo[cd]azulen-9-ones as promising phosphodiesterase-4 inhibitors” (Bioorg Med Chem Lett, 2004).

For one assay, the target named is Phosphodiesterase 1 (Homo sapiens, UniProt P54750+Q01064+Q14123). Briefly: Inhibition of Phosphodiesterase 1. The class given is protein assay, Cavia porcellus.
The next assay concerns the target Phosphodiesterase 3 (Homo sapiens, UniProt Q14432+Q13370). Briefly: Inhibition of phosphodiesterase 3. In kind it is protein assay, Canis lupus familiaris.
In another assay the target is Phosphodiesterase 4 (Homo sapiens, UniProt P27815+Q08499+Q07343+Q08493). The assay can be described thus: Inhibition of phosphodiesterase 4. In kind it is protein assay.

As for `COc1cc2c3c(c1)C(c1ccccc1)=NCC(=O)N3CC2`, the IC50 against Phosphodiesterase 1 is 52 µM; against Phosphodiesterase 3, 77 µM; at Phosphodiesterase 4, 40 µM.
Take `Nc1cc2c3c(c1)C(c1ccccc1)=N[C@@H](NC(=O)c1ccncc1)C(=O)N3CC2`: on Phosphodiesterase 4, the IC50 is 0.27 µM.
Consider `COc1cc2c3c(n1)C(c1ccccc1)=NCC(=O)N3CC2`, for which the results for the IC50 at Phosphodiesterase 1, against Phosphodiesterase 3 and against Phosphodiesterase 4 were more than 100 µM, more than 100 µM and 23 µM, respectively.
As to `COc1cc2c3c(n1)C(c1ccccc1)=N[C@@H](NC(=O)c1cccnc1)C(=O)N3CC2`, the IC50 against Phosphodiesterase 1 amounted to 14 µM; against Phosphodiesterase 3, 12 µM; at Phosphodiesterase 4, 6.1 µM.
`COc1cc2c3c(c1)C(c1ccccc1)=N[C@@H](NC(=O)c1ccncc1)C(=O)N3CC2`: the IC50 against Phosphodiesterase 1 came to 16 µM.
`COc1cc2c3c(n1)C(c1ccccc1)=NC(NC(=O)c1cccnc1)C(=O)N3CC2` (single isomer, unassigned): the IC50 on Phosphodiesterase 1 was 28 µM; on Phosphodiesterase 3 it was more than 100 µM; at Phosphodiesterase 4, 73 µM.
In the same order, the values of `COc1cc2c3c(n1)C(c1ccccc1)=NC(NC(=O)c1cccnc1)C(=O)N3CC2` (stereo in doubt) are 5.8 µM, 31 µM and 4.3 µM.
